# What was measured:
# Assay type in all cases: in vivo
# [1] = test system: horseweed (Conyza canadensis); experiment: (15) Herbicidal effect test, pot, spray at diameter of 13 to 19 cm; conditions: 3rd day after spraying
# Description: (§1) [formula] • X: growth inhibition rate when treated with α (g/ha) of compound A, • Y: growth inhibition rate when treated with β (g/ha) of compound B, • E: growth inhibition rate expected when treated with α (g/ha) of compound A and β (g/ha) of compound B (expected value).
# (§2) Upland soil was put in a 1/1,000,000 hectare pot, and seeds of horseweed (Conyza canadensis) were sown. When the horseweed reached a diameter of 13 to 19 cm, a water-based suspension containing tiafenacil as the active ingredient, prepared by a conventional method for preparing a water-based suspension, and a wettable powder containing tri-allate as the active ingredient, prepared by a conventional method for preparing a wettable powder, an emulsifiable concentrate containing pethoxamid as the active ingredient (tradename: Successor 600, manufactured by Stähler Suisse SA) or an emulsifiable concentrate containing dimethenamid-P as the active ingredient (tradename: Fieldstar P emulsifiable concentrate, manufactured by BASF) were diluted with water (in an amount corresponding to 200 liter per hectare) containing 0.5 vol % of an agricultural spreader (tradename: Destiny HC, manufactured by Winfield Solutions, LLC.) and sprayed by a small spray gun (model: W-101-132G, manufactured by ANEST IWATA Corporation). On the 3rd day after spraying, the state of growth of the horseweed was visually observed, and the growth inhibition rate (%) was obtained in accordance with the evaluation standards described in the above (1) herbicidal effect test, and the results are shown in Table 15. Further, the expected value of the growth inhibition rate (%) was calculated in accordance with the Colby's formula described in the above (1) herbicidal effect test, and the results are also shown in Table 15.
# [2] = test system: waterhemp (Amaranthus tuberculatus); experiment: (13) Herbicidal effect test, pot, spray at 5.0 to 8.0 leaf stage; conditions: 4th day after spraying
# Description: as §1
# as §2, with “waterhemp (Amaranthus tuberculatus)” for “horseweed (Conyza canadensis)”, “waterhemp” for “horseweed”, “5.0” for “a diameter of 13”, “8.0 leaf stage,” for “19 cm,”, “4th” for “3rd”, “13.” for “15.”
# [3] = test system: goosegrass (Eleusine indica); experiment: (11) Herbicidal effect test, pot, spray at 7.0 to 8.3 leaf stage; conditions: 3rd day after spraying
# Description: as §1
# as §2, with “of goosegrass (Eleusine indica)” for “of horseweed (Conyza canadensis)”, “When goosegrass” for “When the horseweed”, “reached 7.0” for “reached a diameter of 13”, “to 8.3 leaf stage,” for “to 19 cm,”, “the goosegrass” for “the horseweed”, “Table 11.” for “Table 15.”
# [4] = test system: Italian ryegrass (Lolium multiflorum); experiment: (16) Herbicidal effect test (comparative test), pot, spray at 2.5 to 3.0 leaf stage; conditions: 4th day after spraying
# Description: as §1
# Upland soil was put in a 1/1,000,000 hectare pot, and seeds of Italian ryegrass (Lolium multiflorum) were sown. When Italian ryegrass reached 2.5 to 3.0 leaf stage, a water-based suspension containing tiafenacil as the active ingredient, prepared by a conventional method for preparing a water-based suspension, a water-based suspension containing saflufenacil as the active ingredient (tradename: Sharpen, manufactured by BASF), a wettable powder containing fomesafen as the active ingredient, prepared by a conventional method for preparing a wettable powder, an emulsifiable concentrate containing fluthiacet-methyl as the active ingredient (tradename: Attackshot emulsifiable concentrate, manufactured by MARUWA Biochemical Co., Ltd.), a dry flowable containing carfentrazone-ethyl as the active ingredient (tradename: Task DF, manufactured by ISHIHARA SANGYO KAISHA, LTD.) or a water-based suspension containing pyraflufen-ethyl as the active ingredient (tradename: ECOPART flowable, manufactured by NIHON NOHYAKU CO., LTD.), and an emulsifiable concentrate containing S-metolachlor as the active ingredient (tradename: Dual Gold, manufactured by Syngenta) or a wettable powder containing metribuzin as the active ingredient (tradename: SENCOR wettable powder, manufactured by Bayer Crop Science), were diluted with water (in an amount corresponding to 200 liter per hectare) containing 0.5 vol % of an agricultural spreader (tradename: Destiny HC, manufactured by Winfield Solutions, LLC.) and sprayed by a small spray gun (model: W-101-132G, manufactured by ANEST IWATA Corporation). On the 4th day after spraying, the state of growth of the Italian ryegrass was visually observed, and the growth inhibition rate (%) was obtained in accordance with the evaluation standards described in the above (1) herbicidal effect test, and the results are shown in Table 16. Further, the expected value of the growth inhibition rate (%) was calculated in accordance with the Colby's formula described in the above (1) herbicidal effect test, and the results are also shown in Table 16.
smiles,measurement,setting,value
CCOCCN(C(=O)CCl)C(=C(C)C)c1ccccc1 [pethoxamid],Growth inhibition rate (%) Measured value,[1]; Dose 93.8 g/ha,0%
same,Growth inhibition rate (%) Measured value,[1]; Dose 375 g/ha,0%
same,Growth inhibition rate (%) Measured value,[1]; Dose 750 g/ha,0%
same,Growth inhibition rate (%) Measured value,[2]; Dose 93.8 g/ha,0%
same,Growth inhibition rate (%) Measured value,[2]; Dose 375 g/ha,0%
same,Growth inhibition rate (%) Measured value,[2]; Dose 750 g/ha,0%
same,Growth inhibition rate (%) Measured value,[3]; Dose 93.8 g/ha,0%
same,Growth inhibition rate (%) Measured value,[3]; Dose 375 g/ha,0%
same,Growth inhibition rate (%) Measured value,[3]; Dose 750 g/ha,0%
CCc1cccc(C)c1N(C(=O)CCl)[C@@H](C)COC [S-metolachlor],Growth inhibition rate (%) Measured value,[4]; Dose 750 g/ha,3%
COC(=O)CCNC(=O)C(C)Sc1cc(-n2c(=O)cc(C(F)(F)F)n(C)c2=O)c(F)cc1Cl (stereo not drawn) [tiafenacil],Growth inhibition rate (%) Measured value,[1]; Dose 6.25 g/ha,17%
same,Growth inhibition rate (%) Measured value,[4]; Dose 12.5 g/ha,38%
same,Growth inhibition rate (%) Measured value,[2]; Dose 6.25 g/ha,73%
same,Growth inhibition rate (%) Measured value,[3]; Dose 6.25 g/ha,77%
COC[C@H](C)N(C(=O)CCl)c1c(C)csc1C [dimethenamid-P],Growth inhibition rate (%) Measured value,[1]; Dose 60 g/ha,0%
same,Growth inhibition rate (%) Measured value,[1]; Dose 375 g/ha,0%
same,Growth inhibition rate (%) Measured value,[1]; Dose 750 g/ha,0%
same,Growth inhibition rate (%) Measured value,[2]; Dose 60 g/ha,0%
same,Growth inhibition rate (%) Measured value,[2]; Dose 375 g/ha,0%
same,Growth inhibition rate (%) Measured value,[2]; Dose 750 g/ha,0%
same,Growth inhibition rate (%) Measured value,[3]; Dose 60 g/ha,0%
same,Growth inhibition rate (%) Measured value,[3]; Dose 375 g/ha,0%
same,Growth inhibition rate (%) Measured value,[3]; Dose 750 g/ha,0%
CC(C)N(C(=O)SCC(Cl)=C(Cl)Cl)C(C)C [tri-allate],inhibition at 75 g/ha,"[1]; Erigeron canadensis, Dose 75 g/ha, read-out: Growth inhibition rate (%) Measured value",0%
same,inhibition at 625 g/ha,"[1]; Erigeron canadensis, Dose 625 g/ha, read-out: Growth inhibition rate (%) Measured value",5%
same,inhibition at 1250 g/ha,"[1]; Erigeron canadensis, Dose 1250 g/ha, read-out: Growth inhibition rate (%) Measured value",3%
same,inhibition at 75 g/ha,"[2]; Amaranthus tuberculatus, Dose 75 g/ha, read-out: Growth inhibition rate (%) Measured value",0%
same,inhibition at 625 g/ha,"[2]; Amaranthus tuberculatus, Dose 625 g/ha, read-out: Growth inhibition rate (%) Measured value",0%
same,inhibition at 1250 g/ha,"[2]; Amaranthus tuberculatus, Dose 1250 g/ha, read-out: Growth inhibition rate (%) Measured value",0%
same,inhibition at 75 g/ha,"[3]; Eleusine indica, Dose 75 g/ha, read-out: Growth inhibition rate (%) Measured value",0%
same,inhibition at 625 g/ha,"[3]; Eleusine indica, Dose 625 g/ha, read-out: Growth inhibition rate (%) Measured value",0%
same,inhibition at 1250 g/ha,"[3]; Eleusine indica, Dose 1250 g/ha, read-out: Growth inhibition rate (%) Measured value",5%
CSc1nnc(C(C)(C)C)c(=O)n1N [metribuzin],inhibition at 18.75 g/ha,"[4]; Lolium multiflorum, Dose 18.75 g/ha, read-out: Growth inhibition rate (%) Measured value",7%

# — patent publication US20250380696A1, “METHOD FOR CONTROLLING UNDESIRED PLANTS AND PROMOTING GROWTH OF USEFUL PLANTS” (ISHIHARA SANGYO KAISHA, LTD., priority 2022, published 2025)
